Earlier results as cited in patent US20020031490A1, “Method for preparing resinates” (priority 2000, published 2002).

solubility of indomethacin in water: 14 ppm
SMILES: COc1ccc2c(c1)c(CC(=O)O)c(C)n2C(=O)c1ccc(Cl)cc1 [indomethacin]
